Assay [1] deals with T1, CB1 receptor (Homo sapiens, UniProt P21554).
T1 construct: Perkin Elmer (CB1-CHO cells); host or cells: Flp-In CHO cells or CB1-CHO cells, stably expressing
The assay can be described thus: CB1 cAMP antagonist assay (LANCE Ultra cAMP kit). Type of assay: cell-based. Particulars: CHO cells stably expressing the CB1 receptor; forskolin and agonist CP55940 at EC90. From the text: (§1) LANCE Ultra cAMP kit (Perkin Elmer) was used to quantitate the amount of 3′,5′-cyclic adenosine monophosphate (cAMP) produced in Flp-In CHO cells (Invitrogen) stably expressing the CB1 receptor, CB1-CHO cells (Perkin Elmer) stably expressing the CB1 receptor, or CB2-CHO cells (Perkin Elmer) stably expressing the CB2 receptor.
(§2) Forskolin was initially titrated to determine the response of the cells. The EC90 of forskolin was used for compound testing. CP55940 was titrated and used with EC90 of forskolin to determine the level of agonist stimulation. EC90 of the agonist was used for subsequent compound testing. For the CB1 assay, Forskolin (Sigma), CP55940 (Cayman Chemicals), and AM251 (MCE) were diluted in 100% DMSO, starting at 100 mM, 1 mM, and 1 mM respectively, in 3-fold serial dilutions. For the CB2 assay, Forskolin (Sigma), CP55940 (Cayman Chemicals), and AM630 (MCE) were diluted in 100% DMSO, starting at 100 mM, 1 mM, and 30 mM respectively, in 3-fold serial dilutions. Test compounds were diluted in 100% DMSO starting from 10 mM, 3-fold dilutions. The cAMP assay buffer contains 1× Hank's Buffered Saline Solution with Ca^2+ and Mg^2+ (Invitrogen), 5.3 mM HEPES (Invitrogen), 0.05% BSA, 0.5 mM IBMX (Sigma). For all assays, cells were harvested, counted, and diluted in cAMP assay buffer to 1×10^5 cells/mL. Only cells with viability >85% were used for the assay. Cells were seeded at 1000 cells/well in 384-well plates and 10 nL/well AM251 (for CB1), AM630 (for CB2) or test compound was added and incubated at 37° C. for 10 min. Then forskolin and agonist were added to reach their EC90 and incubated at 25° C. for 30 min. To detect the amount of cAMP produced, 5 μL of a 100× diluted stock of Eu-cAMP tracer and 5 μL of 200× diluted stock of Ulight-anti-cAMP were added to each well, and the plate incubated at 25° C. for 15 min. The FRET signal was read using an EnVision microplate reader (λex=320 nm, λem=615 nm and 665 nm). The results are expressed as % Inhibition, where % inhibition=100−100×(U−C2)/(C1−C2), where U is the FRET ratio (λem (665 nm)/λem (615 nm)) of sample, C1 is the average of the high controls (signal with no antagonist added), and C2 is the average of low controls (signal with the highest concentration of AM251 or AM630 antagonist). The IC50 is determined by fitting the percentage of inhibition as a function of compound concentrations with the Hill equation, using a 4-parameter fit in either XLfit or GraphPad Prism.
A general note: TR-FRET usually uses a lanthanide donor and a delayed reading to cut background.

Assay [2] addresses T2, CB2 receptor (Homo sapiens, UniProt P34972).
T2 construct: host or cells: CB2-CHO cells, stably expressing
Kind of assay: CB2 cAMP antagonist assay (LANCE Ultra cAMP kit). Type of assay: cell-based. The settings on record: CB2-CHO cells stably expressing the CB2 receptor; forskolin and agonist CP55940 at EC90.
Source text: as §1, §2

A word on the IC50: it is the concentration that gives 50% inhibition.

T1 sequence (P21554 whole entry): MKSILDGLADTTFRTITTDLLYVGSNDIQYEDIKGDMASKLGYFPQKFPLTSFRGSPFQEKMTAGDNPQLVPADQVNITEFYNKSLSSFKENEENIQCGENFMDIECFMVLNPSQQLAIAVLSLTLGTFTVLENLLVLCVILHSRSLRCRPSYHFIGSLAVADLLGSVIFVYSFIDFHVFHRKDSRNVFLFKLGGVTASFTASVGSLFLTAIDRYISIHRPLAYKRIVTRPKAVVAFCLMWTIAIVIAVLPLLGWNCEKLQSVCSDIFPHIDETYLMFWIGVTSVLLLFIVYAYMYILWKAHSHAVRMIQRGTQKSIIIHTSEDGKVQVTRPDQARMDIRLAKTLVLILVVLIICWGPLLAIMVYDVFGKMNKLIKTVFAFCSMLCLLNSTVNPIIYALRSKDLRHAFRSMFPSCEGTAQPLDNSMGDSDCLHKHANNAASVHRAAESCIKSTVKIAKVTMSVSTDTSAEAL
T2 sequence (P34972 whole entry): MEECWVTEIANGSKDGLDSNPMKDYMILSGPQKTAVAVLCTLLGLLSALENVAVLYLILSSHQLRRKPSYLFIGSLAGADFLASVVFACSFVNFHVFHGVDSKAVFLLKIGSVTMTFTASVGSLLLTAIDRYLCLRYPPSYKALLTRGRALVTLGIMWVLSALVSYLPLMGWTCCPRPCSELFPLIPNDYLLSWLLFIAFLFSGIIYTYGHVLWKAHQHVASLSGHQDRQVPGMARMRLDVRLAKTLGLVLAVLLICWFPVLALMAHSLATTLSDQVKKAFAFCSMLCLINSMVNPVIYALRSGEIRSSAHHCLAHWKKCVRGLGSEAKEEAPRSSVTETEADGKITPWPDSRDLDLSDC

In the case of `CC(c1ccc(C(N)=O)cc1)n1c(=O)n(C[C@@H](O)CO)c(=O)c2c1nc(-c1ccccc1Cl)n2-c1ccc(Cl)cc1` (stereo in doubt) [Compound 150, 4-[(1S)-1-[8-(2-chlorophenyl)-7-(4-chlorophenyl)-1-[(2R)-2,3-dihydroxypropyl]-2,6-dioxopurin-3-yl]ethyl]benzamide], the figures for the IC50 in assay [1] and in assay [2] were less than 100 nM and not below 5000 nM, respectively. In the same order, the values of `O=c1[nH]c(=O)n(C2CCCCC2)c2nc(-c3ccccc3Cl)n(-c3ccc(Cl)cc3)c12` [Compound 100] are less than 100 nM and not below 5000 nM. In the same order, the values of `COCCn1c(=O)c2c(nc(-c3ccccc3Cl)n2-c2ccc(Cl)cc2)n(C2CCCCC2)c1=O` [Compound 101] are less than 100 nM and not below 5000 nM.

As for `Cn1c(=O)c2c(nc(-c3ccccc3Cl)n2-c2ccc(Cl)cc2)n(C2CCCCC2)c1=O` [Compound 103], the IC50 in assay [1] is less than 100 nM; in assay [2] it was not below 5000 nM. Turning to `O=c1c2c(nc(-c3ccccc3Cl)n2-c2ccc(Cl)cc2)n(C2CCCCC2)c(=O)n1CCO` [Compound 104, 8-(2-chlorophenyl)-7-(4-chlorophenyl)-3-cyclohexyl-1-(2-hydroxyethyl)-2,3,6,7-tetrahydro-1H-purine-2,6-dione], the IC50 in assay [1] is less than 100 nM; in assay [2], not below 5000 nM.

As to `O=c1c2c(nc(-c3ccccc3Cl)n2-c2ccc(Cl)cc2)n(C2CCCCC2)c(=O)n1CCCO` [Compound 105], the IC50 in assay [1] is less than 100 nM; in assay [2] it was not below 5000 nM.

On to `NC(=O)Cn1c(=O)c2c(nc(-c3ccccc3Cl)n2-c2ccc(Cl)cc2)n(C2CCCCC2)c1=O` [Compound 106], for which the IC50 is less than 100 nM in assay [1] and not below 5000 nM in assay [2]. In the same order, the values of `Cn1c(=O)c2c(nc(-c3ccccc3Cl)n2-c2ccc(Cl)cc2)n(Cc2ccc(C(=O)NCCO)cc2)c1=O` [Compound 112] are less than 100 nM and not below 5000 nM. In the same order, the values of `Cn1c(=O)c2c(nc(-c3ccccc3Cl)n2-c2ccc(Cl)cc2)n(Cc2ccc(C(N)=O)cc2)c1=O` [Compound 114] are less than 100 nM and not below 5000 nM. In the same order, the values of `NC(=O)Cn1c(=O)c2c(nc(-c3ccccc3Cl)n2-c2ccc(Cl)cc2)n(CC2CCOCC2)c1=O` [Compound 125, 2-[8-(2-chlorophenyl)-7-(4-chlorophenyl)-3-(oxan-4-ylmethyl)-2,6-dioxopurin-1-yl]acetamide] are less than 100 nM and not below 5000 nM. For the molecule `C[C@H](c1ccc(C(=O)NCCO)cc1)n1c(=O)n(C)c(=O)c2c1nc(-c1ccccc1Cl)n2-c1ccc(Cl)cc1` [Compound 131], the IC50 was less than 100 nM in assay [1] and not below 5000 nM in assay [2]. In the same order, the values of `NC(=O)c1ccc(Cn2c(=O)n(C[C@@H](O)CO)c(=O)c3c2nc(-c2ccccc2Cl)n3-c2ccc(Cl)cc2)cc1` [Compound 132, 4-[[8-(2-chlorophenyl)-7-(4-chlorophenyl)-1-[(2R)-2,3-dihydroxypropyl]-2,6-dioxopurin-3-yl]methyl]benzamide] are less than 100 nM and not below 5000 nM. `CS(=N)(=O)c1ccc(Cn2c(=O)n(CC(N)=O)c(=O)c3c2nc(-c2ccccc2Cl)n3-c2ccc(Cl)cc2)cc1` (stereo not shown) [Compound 156, 2-[8-(2-chlorophenyl)-7-(4-chlorophenyl)-3-([4-[imino(methyl)oxo-lambda6-sulfanyl]phenyl]methyl)-2,6-dioxopurin-1-yl]acetamide] showed an IC50 in assay [1] of less than 100 nM. On the same count and under the same terms, for `NC(=O)Cn1c(=O)c2c(nc(-c3ccccc3Cl)n2-c2ccc(Cl)cc2)n(CC2(F)CCOCC2)c1=O` [Compound 157] the value was less than 100 nM; for `CS(=O)(=O)N1CCC(Cn2c(=O)n(CC(N)=O)c(=O)c3c2nc(-c2ccccc2Cl)n3-c2ccc(Cl)cc2)CC1` [Compound 158], less than 100 nM. Same read-out and setting: for `C[C@@H](CO)NC(=O)c1ccc(Cn2c(=O)n(C)c(=O)c3c2nc(-c2ccccc2Cl)n3-c2ccc(Cl)cc2)nc1` [Compound 160] the value was less than 100 nM. In assay [1], `C[C@H](CO)NC(=O)c1ccc(Cn2c(=O)n(C)c(=O)c3c2nc(-c2ccccc2Cl)n3-c2ccc(Cl)cc2)nc1` [Compound 161] yielded an IC50 of less than 100 nM. Still for that read-out and setting: next, `Cn1c(=O)c2c(nc(-c3ccccc3Cl)n2-c2ccc(Cl)cc2)n(Cc2ccc(C(=O)NCC3(O)CC3)cn2)c1=O` [Compound 162]: less than 100 nM; `NC(=O)Cn1c(=O)c2c(nc(-c3ncccc3Cl)n2-c2ccc(Cl)cc2)n(CC2CCS(=O)(=O)CC2)c1=O` [Compound 163, 2-[7-(4-chlorophenyl)-8-(3-chloropyridin-2-yl)-3-[(1,1-dioxo-1λ^6-thian-4-yl)methyl]-2,6-dioxopurin-1-yl]acetamide]: 1000 to 5000 nM. The same measure, in the same setting: next, `Cn1c(=O)c2c(nc(-c3ccccc3Cl)n2-c2ccc(Cl)cc2)n(Cc2ccc(C(=O)NCC(C)(C)O)cn2)c1=O` [Compound 166]: less than 100 nM. In the case of `Cn1c(=O)c2c(nc(-c3ccccc3Cl)n2-c2ccc(Cl)cc2)n(Cc2ccc(C(=O)NC3CCOC3)cn2)c1=O` (stereo not shown) [Compound 167], in assay [1], the IC50 is less than 100 nM. Turning to `NC(=O)Cn1c(=O)c2c(nc(-c3ccccc3Cl)n2-c2ccc(Cl)cc2)n(CC2(O)CCOCC2)c1=O` [Compound 168, 2-[8-(2-chlorophenyl)-7-(4-chlorophenyl)-3-[(4-hydroxyoxan-4-yl)methyl]-2,6-dioxopurin-1-yl]acetamide], in assay [1], the IC50 was less than 100 nM. As for `NS(=O)(=O)Cn1c(=O)c2c(nc(-c3ccccc3Cl)n2-c2ccc(Cl)cc2)n(Cc2ccc(Cl)cn2)c1=O` [Compound 169, [8-(2-chlorophenyl)-7-(4-chlorophenyl)-3-[(5-chloropyridin-2-yl)methyl]-2,6-dioxopurin-1-yl]methanesulfonamide], the IC50 in assay [1] was less than 100 nM. On the same count and under the same terms, next, `NC(=O)Cn1c(=O)c2c(nc(-c3ccc(F)cc3F)n2-c2ccc(Cl)cc2)n(CC2CCS(=O)(=O)CC2)c1=O` [Compound 172, 2-[7-(4-chlorophenyl)-8-(2,4-difluorophenyl)-3-[(1,1-dioxo-1λ^6-thian-4-yl)methyl]-2,6-dioxopurin-1-yl]acetamide]: 100 to 1000 nM; `NC(=O)Cn1c(=O)c2c(nc(-c3ccc(F)cc3Cl)n2-c2ccc(Cl)cc2)n(CC2CCS(=O)(=O)CC2)c1=O` [Compound 173]: less than 100 nM; `C[C@@H](Cn1c(=O)c2c(nc(-c3ccccc3Cl)n2-c2ccc(Cl)cc2)n(CC2CCS(=O)(=O)CC2)c1=O)C(N)=O` [Compound 174, (2S)-3-[8-(2-chlorophenyl)-7-(4-chlorophenyl)-3-[(1,1-dioxo-1λ^6-thian-4-yl)methyl]-2,6-dioxopurin-1-yl]-2-methylpropanamide]: less than 100 nM. On the same count and under the same terms, for `C[C@H](Cn1c(=O)c2c(nc(-c3ccccc3Cl)n2-c2ccc(Cl)cc2)n(CC2CCS(=O)(=O)CC2)c1=O)C(N)=O` [Compound 175] the value was less than 100 nM; for `C[C@@H](c1ccc(S(N)(=O)=O)cn1)n1c(=O)n(C)c(=O)c2c1nc(-c1ccccc1Cl)n2-c1ccc(Cl)cc1` [Compound 179, 6-[(1S)-1-[8-(2-chlorophenyl)-7-(4-chlorophenyl)-1-methyl-2,6-dioxopurin-3-yl]ethyl]pyridine-3-sulfonamide], less than 100 nM; for `C[C@H](c1ccc(S(N)(=O)=O)cn1)n1c(=O)n(C)c(=O)c2c1nc(-c1ccccc1Cl)n2-c1ccc(Cl)cc1` [Compound 180, 6-[(1R)-1-[8-(2-chlorophenyl)-7-(4-chlorophenyl)-1-methyl-2,6-dioxopurin-3-yl]ethyl]pyridine-3-sulfonamide], less than 100 nM. Still for that read-out and setting: next, `Cn1nccc1-c1nc2c(c(=O)n(C)c(=O)n2Cc2ccc(S(N)(=O)=O)cc2)n1-c1ccc(Cl)cc1` [Compound 181]: less than 100 nM.

Consider `Cn1nccc1-c1nc2c(c(=O)n(C)c(=O)n2Cc2ccc(S(N)(=O)=O)cn2)n1-c1ccc(Cl)cc1` [Compound 182, 6-[[7-(4-chlorophenyl)-1-methyl-8-(2-methylpyrazol-3-yl)-2,6-dioxopurin-3-yl]methyl]pyridine-3-sulfonamide], for which the IC50 in assay [1] fell in the range of 100 to 1000 nM.

The record behind these values is patent US20220380370A1 (Goldfinch Bio, Inc., priority 2019, published 2022).
